Measured values as given in US20250236608A1, “EGFR INHIBITORS” (Blueprint Medicines Corporation, priority 2022, published 2025).

Experiments:
[1] = molecular target: pEGFR (Tyr1068) in PC-9 cells (Ex19Del) (Homo sapiens (Human), UniProt P00533, DEL746-750); experiment: PC-9 pEGFR AlphaLISA assay; assay type: cell-based; settings: 4 hours incubation, p-EGFR (Tyr1068) AlphaLISA, read-out: Ext pEGFR_PC-9 Ex19Del IC50
Outline: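 Cells seeded in phenol-free DMEM with 10% FBS adhered overnight at 37° C./5% CO2, then were exposed for 4 hours to a 4-fold, 10-point compound dilution series. After lysis, phospho-EGFR was read by AlphaLISA SureFire Ultra, and IC50 was fitted from percent inhibition versus log concentration.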

EGFR L858R = EGFR L858R (Homo sapiens (Human), UniProt P00533, L858R); experiment: Biochemical EGFR inhibition assay, EGFR L858R; settings: Caliper mobility shift; 1.0 mM ATP or ATP Km; read-out: Enz EGFR_L858R IC50
EGFR (d746-750) = EGFR (d746-750) (Homo sapiens (Human), UniProt P00533, DEL746-750); experiment: Biochemical EGFR inhibition assay, EGFR (d746-750); settings: Caliper mobility shift; 1.0 mM ATP or ATP Km; read-out: Enz EGFR_Exon19-del746-750 IC50
Chain of EGFR (d746-750) (P00533 other isoform, or with tags, fused parts or gaps del 1-694/del 746-750 limits assumed): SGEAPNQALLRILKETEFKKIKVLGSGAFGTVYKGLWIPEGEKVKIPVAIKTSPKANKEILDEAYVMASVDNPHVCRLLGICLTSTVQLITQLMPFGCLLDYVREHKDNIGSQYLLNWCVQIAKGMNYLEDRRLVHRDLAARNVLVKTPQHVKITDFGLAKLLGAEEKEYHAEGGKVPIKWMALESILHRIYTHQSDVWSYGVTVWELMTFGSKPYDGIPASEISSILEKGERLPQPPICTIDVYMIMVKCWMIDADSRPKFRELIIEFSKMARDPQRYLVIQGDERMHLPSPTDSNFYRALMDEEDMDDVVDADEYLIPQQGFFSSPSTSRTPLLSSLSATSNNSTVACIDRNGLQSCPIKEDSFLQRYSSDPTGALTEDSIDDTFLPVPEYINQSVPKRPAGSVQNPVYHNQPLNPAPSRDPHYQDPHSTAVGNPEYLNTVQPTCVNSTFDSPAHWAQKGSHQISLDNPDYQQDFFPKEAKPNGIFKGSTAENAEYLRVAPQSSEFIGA

Chain of pEGFR (Tyr1068) in PC-9 cells (Ex19Del) (P00533 other isoform, or with tags, fused parts or gaps del 746-750): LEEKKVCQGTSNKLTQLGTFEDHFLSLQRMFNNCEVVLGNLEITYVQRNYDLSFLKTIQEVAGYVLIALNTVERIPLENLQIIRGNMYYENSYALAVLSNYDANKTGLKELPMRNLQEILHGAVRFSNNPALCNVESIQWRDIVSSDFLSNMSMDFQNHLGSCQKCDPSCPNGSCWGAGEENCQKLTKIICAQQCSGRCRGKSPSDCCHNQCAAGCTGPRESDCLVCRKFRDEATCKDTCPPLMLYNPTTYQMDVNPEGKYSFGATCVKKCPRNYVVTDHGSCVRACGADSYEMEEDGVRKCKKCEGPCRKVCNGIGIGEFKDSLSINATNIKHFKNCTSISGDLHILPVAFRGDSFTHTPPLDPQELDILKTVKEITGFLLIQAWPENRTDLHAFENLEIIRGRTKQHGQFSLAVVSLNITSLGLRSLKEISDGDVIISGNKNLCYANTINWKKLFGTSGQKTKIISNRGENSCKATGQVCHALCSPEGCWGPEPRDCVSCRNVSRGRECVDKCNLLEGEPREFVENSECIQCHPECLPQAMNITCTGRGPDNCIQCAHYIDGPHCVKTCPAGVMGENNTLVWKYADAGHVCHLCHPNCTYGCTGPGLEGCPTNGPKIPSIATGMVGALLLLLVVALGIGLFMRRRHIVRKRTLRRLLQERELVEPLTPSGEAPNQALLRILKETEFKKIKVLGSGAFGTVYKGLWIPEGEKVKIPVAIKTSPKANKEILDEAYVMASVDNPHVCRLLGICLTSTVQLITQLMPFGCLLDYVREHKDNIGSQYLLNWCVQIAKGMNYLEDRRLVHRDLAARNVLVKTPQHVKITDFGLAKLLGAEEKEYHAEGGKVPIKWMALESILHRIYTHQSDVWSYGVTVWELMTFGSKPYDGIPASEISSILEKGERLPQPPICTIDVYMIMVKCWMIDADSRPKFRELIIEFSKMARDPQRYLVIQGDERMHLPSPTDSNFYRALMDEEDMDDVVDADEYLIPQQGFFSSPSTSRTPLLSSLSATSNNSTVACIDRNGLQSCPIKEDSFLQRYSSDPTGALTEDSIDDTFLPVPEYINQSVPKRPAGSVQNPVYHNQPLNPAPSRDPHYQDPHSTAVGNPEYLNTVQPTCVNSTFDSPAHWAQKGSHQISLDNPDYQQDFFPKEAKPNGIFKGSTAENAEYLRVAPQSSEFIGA
Chain of EGFR L858R (P00533 25-1210 L858R): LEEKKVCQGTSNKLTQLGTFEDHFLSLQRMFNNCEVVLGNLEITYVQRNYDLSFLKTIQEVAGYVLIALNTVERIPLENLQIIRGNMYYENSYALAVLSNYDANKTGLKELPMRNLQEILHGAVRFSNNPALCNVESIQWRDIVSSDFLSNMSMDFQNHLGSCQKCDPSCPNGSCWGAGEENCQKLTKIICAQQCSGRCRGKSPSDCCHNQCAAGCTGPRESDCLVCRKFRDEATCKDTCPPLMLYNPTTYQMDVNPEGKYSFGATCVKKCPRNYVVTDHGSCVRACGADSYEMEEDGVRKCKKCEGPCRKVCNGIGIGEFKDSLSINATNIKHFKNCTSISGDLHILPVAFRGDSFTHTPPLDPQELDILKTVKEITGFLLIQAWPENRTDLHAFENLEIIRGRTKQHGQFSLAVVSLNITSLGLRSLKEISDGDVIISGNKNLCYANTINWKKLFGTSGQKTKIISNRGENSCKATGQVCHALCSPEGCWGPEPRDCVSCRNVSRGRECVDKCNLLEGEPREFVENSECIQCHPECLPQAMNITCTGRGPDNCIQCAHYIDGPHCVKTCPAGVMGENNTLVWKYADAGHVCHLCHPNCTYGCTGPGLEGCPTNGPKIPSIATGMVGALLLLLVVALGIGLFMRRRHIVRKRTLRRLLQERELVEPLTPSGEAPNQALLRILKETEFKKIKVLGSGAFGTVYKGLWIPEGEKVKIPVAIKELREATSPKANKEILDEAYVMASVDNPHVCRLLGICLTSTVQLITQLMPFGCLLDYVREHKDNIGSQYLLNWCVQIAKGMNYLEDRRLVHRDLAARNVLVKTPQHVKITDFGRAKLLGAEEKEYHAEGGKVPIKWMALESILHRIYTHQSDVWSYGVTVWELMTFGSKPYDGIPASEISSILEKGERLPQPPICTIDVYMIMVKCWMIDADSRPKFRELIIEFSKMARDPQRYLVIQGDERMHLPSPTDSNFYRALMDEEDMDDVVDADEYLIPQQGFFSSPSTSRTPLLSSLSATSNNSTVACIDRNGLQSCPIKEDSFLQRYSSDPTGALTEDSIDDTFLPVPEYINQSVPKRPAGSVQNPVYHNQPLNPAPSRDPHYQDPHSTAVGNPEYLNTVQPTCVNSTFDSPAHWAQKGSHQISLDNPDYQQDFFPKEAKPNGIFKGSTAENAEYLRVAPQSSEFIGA

Molecule `COc1cc2ncnc(-c3cn(C)nc3-c3ccccc3F)c2nc1NC(=O)C1(C(F)(F)F)CC1` [Example 317, N-(4-(3-(2-fluorophenyl)-1-methyl-1H-pyrazol-4-yl)-7-methoxypyrido[3,2-d]pyrimidin-6-yl)-1-(trifluoromethyl)cyclopropane-1-carboxamide] has an IC50 [1] of 1.5 nM, an IC50 (EGFR L858R) of 2.7 nM and an IC50 (EGFR (d746-750)) of 1.2 nM.
`CCn1cc(-c2ncnc3cc(OC)c(N4CCOCC4)cc23)c(-c2ccc(F)cc2)n1` [Example 171, 4-(4-(1-ethyl-3-(4-fluorophenyl)-1H-pyrazol-4-yl)-7-methoxyquinazolin-6-yl)morpholine] showed an IC50 [1] of 4.8 nM, an IC50 (EGFR L858R) of 5.2 nM and an IC50 (EGFR (d746-750)) of 2.9 nM.
`COc1cc2ncnc(-c3cn(C)nc3-c3ccccc3)c2cc1NC(=O)N1CCO[C@@H](C)[C@@H]1C` [Example 177, (2S,3S)—N-(7-methoxy-4-(1-methyl-3-phenyl-1H-pyrazol-4-yl)quinazolin-6-yl)-2,3-dimethylmorpholine-4-carboxamide] was tested, and the IC50 [1] was 6.1 nM, the IC50 (EGFR L858R) was 4.3 nM and the IC50 (EGFR (d746-750)) was 2.1 nM.
For `COc1cc2ncnc(-c3cn(C)nc3-c3ccccc3)c2nc1O[C@@H](C)c1cccnc1F` [Example 47, (S)-6-(1-(2-fluoropyridin-3-yl)ethoxy)-7-methoxy-4-(1-methyl-3-phenyl-1H-pyrazol-4-yl)pyrido[3,2-d]pyrimidine], the IC50 [1] was 2.1 nM, the IC50 (EGFR L858R) was 2.6 nM and the IC50 (EGFR (d746-750)) was 1.4 nM.
With `CCn1cc(-c2ncnc3cc(OC)c(NC(=O)C45CC(N(C)C)(C4)C5)nc23)c(-c2ccc(F)cc2)n1` [Example 405, 3-(dimethylamino)-N-(4-(1-ethyl-3-(4-fluorophenyl)-1H-pyrazol-4-yl)-7-methoxypyrido[3,2-d]pyrimidin-6-yl)bicyclo[1.1.1]pentane-1-carboxamide] the IC50 [1] was 1.7 nM, the IC50 (EGFR L858R) was 2 nM and the IC50 (EGFR (d746-750)) was 0.8 nM.
`COc1cc2ncnc(-c3cn(C)nc3-c3ccccc3)c2nc1NC(=O)[C@@]12C[C@@H]1CN(C)C2` (single isomer, unassigned) [Example 392, (1S,5S)—N-(7-methoxy-4-(1-methyl-3-phenyl-1H-pyrazol-4-yl)pyrido[3,2-d]pyrimidin-6-yl)-3-methyl-3-azabicyclo[3.1.0]hexane-1-carboxamide or (1R,5R)—N-(7-methoxy-4-(1-methyl-3-phenyl-1H-pyrazol-4-yl)pyrido[3,2-d]pyrimidin-6-yl)-3-methyl-3-azabicyclo[3.1.0]hexane-1-carboxamide] gave an IC50 [1] of 5.9 nM, an IC50 (EGFR L858R) of 6.1 nM and an IC50 (EGFR (d746-750)) of 2.2 nM.
With `COc1cc2ncnc(-c3cn(C)nc3-c3ccc(F)cc3)c2nc1NC(=O)[C@]12C[C@H]1CN(C)C2` (single isomer, unassigned) [Example 411, (1R,5R)—N-(4-(3-(4-fluorophenyl)-1-methyl-1H-pyrazol-4-yl)-7-methoxypyrido[3,2-d]pyrimidin-6-yl)-3-methyl-3-azabicyclo[3.1.0]hexane-1-carboxamide or (1S,5S)—N-(4-(3-(4-fluorophenyl)-1-methyl-1H-pyrazol-4-yl)-7-methoxypyrido[3,2-d]pyrimidin-6-yl)-3-methyl-3-azabicyclo[3.1.0]hexane-1-carboxamide] the IC50 [1] was 2.3 nM, the IC50 (EGFR L858R) was 2.6 nM and the IC50 (EGFR (d746-750)) was 1.3 nM.
For `COc1cc2ncnc(-c3cn(C)nc3-c3ccc(F)cc3)c2cc1NC(=O)c1cn(C)nc1C` [Example 305, N-(4-(3-(4-fluorophenyl)-1-methyl-1H-pyrazol-4-yl)-7-methoxyquinazolin-6-yl)-1,3-dimethyl-1H-pyrazole-4-carboxamide], the IC50 [1] was 3.5 nM, the IC50 (EGFR L858R) was 5.1 nM and the IC50 (EGFR (d746-750)) was 3.3 nM.
For `C[C@@H](O)c1cc2c(-c3cn(CC(F)F)nc3-c3ccccc3)ncnc2cc1-c1cnn(C)c1` (single isomer, unassigned) [Example 445, (R)-1-(4-(1-(2,2-difluoroethyl)-3-phenyl-1H-pyrazol-4-yl)-7-(1-methyl-1H-pyrazol-4-yl)quinazolin-6-yl)ethan-1-ol or (S)-1-(4-(1-(2,2-difluoroethyl)-3-phenyl-1H-pyrazol-4-yl)-7-(1-methyl-1H-pyrazol-4-yl)quinazolin-6-yl)ethan-1-ol], the IC50 [1] was 2.7 nM, the IC50 (EGFR L858R) was 1.5 nM and the IC50 (EGFR (d746-750)) was 1 nM.
Work on `COc1cc2ncnc(-c3cn(CC(F)F)nc3-c3ccccc3)c2cc1OC(=O)N1CCN(C)C[C@@H]1C` [Example 70, 4-(1-(2,2-difluoroethyl)-3-phenyl-1H-pyrazol-4-yl)-7-methoxyquinazolin-6-yl (S)-2,4-dimethylpiperazine-1-carboxylate] yielded an IC50 [1] of 1.6 nM, an IC50 (EGFR L858R) of 2.7 nM and an IC50 (EGFR (d746-750)) of 1.7 nM.
`CCOc1cc2ncnc(-c3cn(C)nc3-c3ccc(F)cc3)c2nc1NC(=O)[C@@]12C[C@@H]1CN(C)C2` (single isomer, unassigned) [Example 375, (1S,5S)—N-(7-ethoxy-4-(3-(4-fluorophenyl)-1-methyl-1H-pyrazol-4-yl)pyrido[3,2-d]pyrimidin-6-yl)-3-methyl-3-azabicyclo[3.1.0]hexane-1-carboxamide or (1R,5R)—N-(7-ethoxy-4-(3-(4-fluorophenyl)-1-methyl-1H-pyrazol-4-yl)pyrido[3,2-d]pyrimidin-6-yl)-3-methyl-3-azabicyclo[3.1.0]hexane-1-carboxamide] showed an IC50 [1] of 2.5 nM, an IC50 (EGFR L858R) of 2.4 nM and an IC50 (EGFR (d746-750)) of 0.9 nM.
With `Cn1cc(-c2ncnc3cc(OC4CC4)c(NC(=O)C4(C(F)(F)F)CC4)nc23)c(-c2ccccc2)n1` [Example 463, N-[7-cyclopropoxy-4-(1-methyl-3-phenyl-1H-pyrazol-4-yl)pyrido[3,2-d]pyrimidin-6-yl]-1-(trifluoromethyl)cyclopropane-1-carboxamide] the IC50 [1] was 1.7 nM, the IC50 (EGFR L858R) was 3.9 nM and the IC50 (EGFR (d746-750)) was 0.8 nM.
For `COc1cc2ncnc(-c3cn(C)nc3-c3ccccc3)c2cc1CO` [Example 119, (7-methoxy-4-(1-methyl-3-phenyl-1H-pyrazol-4-yl)quinazolin-6-yl)methanol], the IC50 [1] was 13.6 nM, the IC50 (EGFR L858R) was 3.9 nM and the IC50 (EGFR (d746-750)) was 2.1 nM.
`COc1cc2ncnc(-c3cn(C)nc3-c3ccccc3)c2cc1NC(=O)c1ccnn1C(C)C` [Example 218, 1-isopropyl-N-(7-methoxy-4-(1-methyl-3-phenyl-1H-pyrazol-4-yl)quinazolin-6-yl)-1H-pyrazole-5-carboxamide] gave an IC50 [1] of 2.7 nM, an IC50 (EGFR L858R) of 2.1 nM and an IC50 (EGFR (d746-750)) of 1 nM.
`COc1cc2ncnc(-c3cn(C)nc3-c3ccccc3)c2cc1NC(=O)c1cncc(C)c1` [Example 321, N-(7-methoxy-4-(1-methyl-3-phenyl-1H-pyrazol-4-yl)quinazolin-6-yl)-5-methylnicotinamide] showed an IC50 [1] of 5.3 nM, an IC50 (EGFR L858R) of 5.2 nM and an IC50 (EGFR (d746-750)) of 2.7 nM.
In the case of `COc1cc2ncnc(-c3c[nH]nc3-c3ccccc3)c2nc1NC(=O)C1(C(F)(F)F)CC1` [Example 372, N-(7-methoxy-4-(3-phenyl-1H-pyrazol-4-yl)pyrido[3,2-d]pyrimidin-6-yl)-1-(trifluoromethyl)cyclopropane-1-carboxamide], the IC50 [1] is reported as 1.5 nM, the IC50 (EGFR L858R) is reported as 1.6 nM and the IC50 (EGFR (d746-750)) is reported as 0.7 nM.
`CCOc1cc2ncnc(-c3cn(C)nc3-c3ccccc3)c2cc1N1CCOCC1=O` [Example 267, 4-(7-ethoxy-4-(1-methyl-3-phenyl-1H-pyrazol-4-yl)quinazolin-6-yl)morpholin-3-one] showed an IC50 [1] of 12.1 nM, an IC50 (EGFR L858R) of 109 nM and an IC50 (EGFR (d746-750)) of 9.8 nM.
For `CCc1ccc(-c2cc3c(-c4cn(C)nc4-c4ccccc4)ncnc3cc2OC)c2c[nH]nc12` [Example 472, 6-(7-ethyl-2H-indazol-4-yl)-7-methoxy-4-(1-methyl-3-phenyl-1H-pyrazol-4-yl)quinazoline], the IC50 [1] was 2.7 nM, the IC50 (EGFR L858R) was 7.6 nM and the IC50 (EGFR (d746-750)) was 1.9 nM.
`CCOc1cc2ncnc(-c3cn(C)nc3-c3ccccc3F)c2nc1NC(=O)[C@@]12C[C@@H]1CN(C)C2` (single isomer, unassigned) [Example 400, (1S,5S)—N-(7-ethoxy-4-(3-(2-fluorophenyl)-1-methyl-1H-pyrazol-4-yl)pyrido[3,2-d]pyrimidin-6-yl)-3-methyl-3-azabicyclo[3.1.0]hexane-1-carboxamide or (1R,5R)—N-(7-ethoxy-4-(3-(2-fluorophenyl)-1-methyl-1H-pyrazol-4-yl)pyrido[3,2-d]pyrimidin-6-yl)-3-methyl-3-azabicyclo[3.1.0]hexane-1-carboxamide] gave an IC50 [1] of 2 nM, an IC50 (EGFR L858R) of 141 nM and an IC50 (EGFR (d746-750)) of 1.6 nM.
With `COc1cc2ncnc(-c3cn(C)nc3-c3ccccc3)c2cc1OC(=O)N1C[C@H](C)N(C)C[C@@H]1C` [Example 97, 7-methoxy-4-(1-methyl-3-phenyl-1H-pyrazol-4-yl)quinazolin-6-yl (2S,5S)-2,4,5-trimethylpiperazine-1-carboxylate] the IC50 [1] was 12.4 nM, the IC50 (EGFR L858R) was 7.8 nM and the IC50 (EGFR (d746-750)) was 4.9 nM.
`COc1cc2ncnc(-c3cn(C)nc3-c3ccccc3)c2nc1NC(=O)C12CCCN1CCC2` [Example 368, N-(7-methoxy-4-(1-methyl-3-phenyl-1H-pyrazol-4-yl)pyrido[3,2-d]pyrimidin-6-yl)tetrahydro-1H-pyrrolizine-7a(5H)-carboxamide] was tested, and the IC50 [1] was 4.6 nM, the IC50 (EGFR L858R) was 3.9 nM and the IC50 (EGFR (d746-750)) was 1.5 nM.
Molecule `COc1cc2ncnc(-c3cn(C4CC4)nc3-c3ccccc3)c2nc1NC(=O)C1(C(F)(F)F)CC1` [Example 367, N-(4-(1-cyclopropyl-3-phenyl-1H-pyrazol-4-yl)-7-methoxypyrido[3,2-d]pyrimidin-6-yl)-1-(trifluoromethyl)cyclopropane-1-carboxamide] has an IC50 [1] of 0.5 nM, an IC50 (EGFR L858R) of 1.6 nM and an IC50 (EGFR (d746-750)) of 0.9 nM.
